Assay results as given in PubChem BioAssay (NCI).
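Cultured in 96-well plates, cells were exposed to test compound for 48 hours across five concentrations. GI50 is the concentration that inhibits growth by half. TGI: concentration producing complete growth inhibition.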

Test system: MALME-3M melanoma
Experiment: growth of human tumour cells (NCI), 48 h

| SMILES | GI50 [µM] | TGI [µM] |
| --- | --- | --- |
| CCCCCCCC/C=C/CCCCCCCC(=O)OC[C@H]1O[C@@H](n2ccc(N)nc2=O)C(F)(F)[C@@H]1O | 0.0463 | > 100 |
| NS(=O)(=O)c1ccc(N=Nc2c(O)[nH]c3ccc(-c4cnco4)cc23)cc1 | > 25 | > 25 |
| Clc1ccc(C2=Nn3c(COc4ccccc4Cl)nnc3SC2)c(Cl)c1 | 20.3 | 70.6 |
| COc1cc2c3c(n(CCCNC(=O)OCC4c5ccccc5-c5ccccc54)c(=O)c2cc1OC)-c1cc2c(cc1/C3=C\CCNC(=O)OCC1c3ccccc3-c3ccccc31)OCO2 | 45.5 | > 50 |
| N#C/C(=C1C=C(Br)/C(=N\O)C=C\1Cl)c1cccc2ccccc12 | – | 21.4 |
| COc1cc2nc3cc([N+](=O)[O-])ccc3c(NCCCNCCO)c2cc1OC | 0.189 | 0.359 |
| COC(=O)[C@@H](C)CNS(=O)(=O)N(c1cc(C(F)(F)F)cc(C(F)(F)F)c1)C1CCN(Cc2ccc(F)cc2)CC1 | 6.89 | 22.3 |
| C=C1C(=O)O[C@@H]2/C=C(\C)CC/C=C(/COC(C)=O)C[C@@H](OC(C)=O)[C@@H]12 | – | 8.85 |
| COC(=O)[C@H](C)NC(=O)NC(=O)NC(=O)CI | 2.07 | 5.13 |
| CCOC(=O)c1c(C)n(Cc2ccc(Cl)cc2Cl)c2c1c(CN(C)C)c(O)c1[nH]cnc12 | 21.2 | 42.9 |
| CN1C/C=C\CCOc2cccc(c2)-c2ccnc(n2)Nc2cccc(c2)C1 | 0.107 | 0.454 |
| CN1C(=O)c2cccc3cc([N+](=O)[O-])cc(c23)C1=O | – | > 10 |
| Oc1ccccc1C(Sc1nc2ccccc2s1)Sc1nc2ccccc2s1 | – | > 100 |
| COC1=C(C)C(=O)c2c(c(COC(N)=O)c3n2CC2C3N2C)C1=O (stereo not drawn) | – | 0.164 |
| COc1ccc(Cn2cc3c(c2-c2ccccc2)CC(C)(C)c2cnoc2-3)cc1 | 1.63 | > 100 |
| c1cc(CNC23CC4CC(CC(C4)C2)C3)cc(C[N+](Cc2cccc(CNC34CC5CC(CC(C5)C3)C4)c2)(Cc2cccc(CNC34CC5CC(CC(C5)C3)C4)c2)Cc2cccc(CNC34CC5CC(CC(C5)C3)C4)c2)c1 (stereo not drawn) | 3.51 | 7.77 |
| Oc1cccnc1CN1CCCCC1 | – | > 100 |

Test system: NCI-H460 lung
Experiment: growth of human tumour cells (NCI), 48 h

| SMILES | GI50 [µM] | TGI [µM] |
| --- | --- | --- |
| CN1CCN(CCCOc2ccc3nc(Nc4ccc(Cl)c(C(F)(F)F)c4)ccc3c2)CC1 | 16.4 | 39.1 |
| CC(C)n1nc(-c2cc3cc(O)ccc3[nH]2)c2c(N)ncnc21 | 0.127 | 9.38 |
| CCCCC(O)(c1ccc(Cl)cc1)C(CN1CCOCC1)c1ccc(Cl)cc1 (stereo not drawn) | 10.7 | 25.7 |
| NCC1Nc2ccccc2[C@@H](O)C1O (stereo partly drawn) | – | > 100 |
| OC[C@H]1CCCC1O (stereo partly drawn) | – | > 100 |
| Cc1cccc(N2CCN(C(=S)c3ccc4c(c3)OCO4)CC2)c1 | 0.472 | 37.5 |
| Cc1cc(C(=O)Nc2ncc(Cc3cccc(C(F)(F)F)c3)s2)c2ccccc2n1 | 1.33 | > 100 |
| O=C(N/N=C/c1ccc(Cl)cc1)c1ccc(C(F)(F)F)nc1Nc1cccc(C(F)(F)F)c1 | 1.66 | 6.6 |
| COc1cc2ncnc(Nc3ccc(C)c(O)c3)c2cc1OC | > 25 | > 25 |
| O=C1OC(C(O)CO)C(=O)C1=O (stereo not drawn) | 3540 | > 10000 |
| COC(=O)C1=CNC=C(C(=O)OC)C1C1=CC(=O)C(C)=CC1=O | 14.2 | 30.5 |
| C=C1C(=O)O[C@H]2[C@H]1CC/C(COC(=O)C(=O)c1cn(Cc3ccccc3)c3ccccc13)=C\CC[C@@]1(C)O[C@@H]21 | 2.84 | 12.2 |
| Cc1cc(S(=O)(=O)Nc2nnc(-c3ccccc3)c(-c3ccccc3)n2)c(SCC(N)=O)cc1Cl | 36.9 | > 100 |
| COc1ccc(/C=C/c2ccnc3ccccc23)c(OC)c1 | – | > 10 |
| Cc1ccc(C(=O)CN(/C=C/C(=O)C(F)(F)F)c2ccc(S(N)(=O)=O)cc2)cc1 | > 100 | > 100 |
| Clc1nc(Cl)c(Cl)c(-c2ccccc2)n1 | – | > 100 |
| COC(C(O)CO)C(O)C(O)C(=O)NNc1ccccc1 (stereo not drawn) | – | > 100 |
| NS(=O)(=O)c1ccc(NC2(C(=O)O)CCCC2)cc1 | – | > 100 |
| N=C1C(c2nc3ccccc3s2)=C(O)CN1c1cc(C(F)(F)F)ccc1Cl | 13.3 | 77.9 |
| CC(=O)CSCc1ccccn1 | – | > 100 |

| SMILES | GI50 [µM] | TGI [µM] |
| --- | --- | --- |
| COc1ccccc1CNCCCN1C(=O)c2ccc3c4c(ccc(c24)C1=O)C(=O)N(CCCOCCCCOCCCN)C3=O | 0.597 | 2.17 |
| CCOC(=O)[C@@H](N)CCC(=O)N[C@@H](CSCc1ccccc1)C(=O)N[C@@H](C(=O)OCC)c1ccccc1 | 27.1 | > 69.8 |
| COc1ccc(Nc2c3ccccc3nc3occc23)cc1 | 0.87 | 28.1 |
| CCCCCCCC/C=C/CCCCCCCC(=O)OC[C@H]1O[C@@H](n2ccc(N)nc2=O)C(F)(F)[C@@H]1O | < 0.0212 | > 33.4 |
| NS(=O)(=O)c1ccc(N=Nc2c(O)[nH]c3ccc(-c4cnco4)cc23)cc1 | 14.3 | > 25 |
| Clc1ccc(C2=Nn3c(COc4ccccc4Cl)nnc3SC2)c(Cl)c1 | 24.2 | > 100 |
| COc1cc2c3c(n(CCCNC(=O)OCC4c5ccccc5-c5ccccc54)c(=O)c2cc1OC)-c1cc2c(cc1/C3=C\CCNC(=O)OCC1c3ccccc3-c3ccccc31)OCO2 | > 50 | > 50 |
| N#C/C(=C1C=C(Br)/C(=N\O)C=C\1Cl)c1cccc2ccccc12 | – | 21.4 |
| COc1cc2nc3cc([N+](=O)[O-])ccc3c(NCCCNCCO)c2cc1OC | 0.264 | 0.624 |
| COC(=O)[C@@H](C)CNS(=O)(=O)N(c1cc(C(F)(F)F)cc(C(F)(F)F)c1)C1CCN(Cc2ccc(F)cc2)CC1 | 7.13 | 22.1 |
| C=C1C(=O)O[C@@H]2/C=C(\C)CC/C=C(/COC(C)=O)C[C@@H](OC(C)=O)[C@@H]12 | – | 26 |
| COC(=O)[C@H](C)NC(=O)NC(=O)NC(=O)CI | 20.1 | 40.8 |
| CCOC(=O)c1c(C)n(Cc2ccc(Cl)cc2Cl)c2c1c(CN(C)C)c(O)c1[nH]cnc12 | 15.3 | 28.7 |
| CN1C/C=C\CCOc2cccc(c2)-c2ccnc(n2)Nc2cccc(c2)C1 | 0.0398 | 1.14 |
| C[C@@]12CC=C3c4nc(Nc5cccc(O)c5)sc4CC[C@]3(C)[C@H]1CC[C@]1(C)C(=O)CC[C@@H]21 | 2.66 | 7.25 |
| Oc1ccccc1C(Sc1nc2ccccc2s1)Sc1nc2ccccc2s1 | – | > 100 |
| COc1ccc(Cn2cc3c(c2-c2ccccc2)CC(C)(C)c2cnoc2-3)cc1 | 2.17 | > 100 |
| CN1c2ccc(Cl)cc2C(=O)NC1c1ccc([N+](=O)[O-])s1 (stereo not drawn) | – | 36.4 |
| c1cc(CNC23CC4CC(CC(C4)C2)C3)cc(C[N+](Cc2cccc(CNC34CC5CC(CC(C5)C3)C4)c2)(Cc2cccc(CNC34CC5CC(CC(C5)C3)C4)c2)Cc2cccc(CNC34CC5CC(CC(C5)C3)C4)c2)c1 (stereo not drawn) | 4.97 | 11.3 |
| Oc1cccnc1CN1CCCCC1 | – | > 100 |

Test system: OVCAR-4 ovarian
Experiment: growth of human tumour cells (NCI), 48 h

| SMILES | GI50 [µM] | TGI [µM] |
| --- | --- | --- |
| CN1CCN(CCCOc2ccc3nc(Nc4ccc(Cl)c(C(F)(F)F)c4)ccc3c2)CC1 | 12.7 | 26.4 |
| CC(C)n1nc(-c2cc3cc(O)ccc3[nH]2)c2c(N)ncnc21 | 0.0827 | 0.923 |
| CCCCC(O)(c1ccc(Cl)cc1)C(CN1CCOCC1)c1ccc(Cl)cc1 (stereo not drawn) | 13.6 | 29 |
| NCC1Nc2ccccc2[C@@H](O)C1O (stereo partly drawn) | – | > 100 |
